Experimental data reported in patent US12343326B2, “Psychoactive medicines and their use for treating psychiatric and neurological conditions and disorders” (Transcend Therapeutics, Inc., priority 2021, dated 2025).

Experiments:
Assay in all cases: β-arrestin based GPCR screen (PathHunter / GPCRmax), agonist mode
Assay type in all cases: cell-based
Parameters in all cases: host or cells: PathHunter cell lines
[1] = molecular target: 168 GPCRs (Homo sapiens, UniProt O95977)
Description: (§1) For agonist determination, cells were incubated with sample to induce response. […] Vehicle concentration was 1%.

[2] = molecular target: 168 GPCRs (Homo sapiens, UniProt P18825); details: ADRA2C, Agonist
Description: as §1

[3] = molecular target: 168 GPCRs (Homo sapiens, UniProt P20309); details: CHRM3, Agonist
Description: as §1

[4] = molecular target: 168 GPCRs (Homo sapiens, UniProt P25021)
Description: as §1

[5] = molecular target: 168 GPCRs (Homo sapiens, UniProt P25025)
Description: as §1

[6] = molecular target: 168 GPCRs (Homo sapiens, UniProt P25105); details: PTAFR
Description: as §1

[7] = molecular target: 168 GPCRs (Homo sapiens, UniProt P28222); details: HTR1B
Description: as §1

[8] = molecular target: 168 GPCRs (Homo sapiens, UniProt P30518); details: AVPR2, Agonist
Description: as §1

[9] = molecular target: 168 GPCRs (Homo sapiens, UniProt P51681); details: CCR5, CCR5, Agonist
Description: as §1

[10] = molecular target: T1, 168 GPCRs (Homo sapiens, UniProt Q5NUL3)
T1 sequence (Q5NUL3 1-361): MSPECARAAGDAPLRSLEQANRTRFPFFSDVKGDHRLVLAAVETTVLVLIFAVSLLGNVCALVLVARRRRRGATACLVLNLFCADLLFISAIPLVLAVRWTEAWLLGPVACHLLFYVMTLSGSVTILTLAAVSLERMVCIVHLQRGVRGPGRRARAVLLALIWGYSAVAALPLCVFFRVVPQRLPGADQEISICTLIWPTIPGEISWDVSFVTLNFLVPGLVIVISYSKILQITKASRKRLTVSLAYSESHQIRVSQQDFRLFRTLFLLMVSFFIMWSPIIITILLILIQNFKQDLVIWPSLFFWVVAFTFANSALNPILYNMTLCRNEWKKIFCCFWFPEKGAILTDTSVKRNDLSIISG
Description: as §1

[11] = molecular target: 168 GPCRs (Homo sapiens, UniProt Q8TCW9)
Description: as §1

[12] = molecular target: 168 GPCRs (Homo sapiens, UniProt Q8TDS4); details: GPR109A
Description: as §1

[13] = molecular target: 168 GPCRs (Homo sapiens, UniProt Q9H1C0)
Description: as §1

[14] = molecular target: 168 GPCRs (Homo sapiens, UniProt Q9H3N8)
Description: as §1

[15] = molecular target: 168 GPCRs (Homo sapiens, UniProt Q9HB89); details: NMU1R
Description: as §1

[16] = molecular target: 168 GPCRs (Homo sapiens, UniProt Q9UKP6)
Description: as §1

[17] = molecular target: 168 GPCRs (Homo sapiens, UniProt Q9Y5N1)
Description: as §1

[18] = molecular target: T2, 168 GPCRs (Homo sapiens, UniProt Q9Y5Y4)
T2 sequence (Q9Y5Y4 1-395): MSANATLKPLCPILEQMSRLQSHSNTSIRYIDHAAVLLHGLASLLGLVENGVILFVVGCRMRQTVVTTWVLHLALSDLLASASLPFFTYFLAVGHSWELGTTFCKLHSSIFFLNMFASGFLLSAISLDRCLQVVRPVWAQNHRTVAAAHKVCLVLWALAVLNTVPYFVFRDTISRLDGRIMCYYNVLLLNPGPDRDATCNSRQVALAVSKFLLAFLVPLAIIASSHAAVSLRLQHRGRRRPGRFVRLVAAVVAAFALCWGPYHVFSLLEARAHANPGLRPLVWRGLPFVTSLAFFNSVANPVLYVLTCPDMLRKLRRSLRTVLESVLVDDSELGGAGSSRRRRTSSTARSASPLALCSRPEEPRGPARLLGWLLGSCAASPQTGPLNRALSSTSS
Description: as §1

168 GPCRs (Homo sapiens, UniProt P25105), sequence (P25105 whole entry): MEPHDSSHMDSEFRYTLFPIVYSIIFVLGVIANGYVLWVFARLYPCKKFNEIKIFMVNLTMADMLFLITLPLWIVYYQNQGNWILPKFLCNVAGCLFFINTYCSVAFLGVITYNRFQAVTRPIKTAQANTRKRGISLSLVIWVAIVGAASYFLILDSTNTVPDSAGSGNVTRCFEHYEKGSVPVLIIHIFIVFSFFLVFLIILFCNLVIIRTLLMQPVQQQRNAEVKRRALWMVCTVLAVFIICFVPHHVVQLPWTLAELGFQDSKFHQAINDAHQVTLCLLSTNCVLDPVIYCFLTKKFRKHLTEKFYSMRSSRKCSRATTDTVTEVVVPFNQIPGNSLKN
168 GPCRs (Homo sapiens, UniProt P25021), sequence (P25021 whole entry): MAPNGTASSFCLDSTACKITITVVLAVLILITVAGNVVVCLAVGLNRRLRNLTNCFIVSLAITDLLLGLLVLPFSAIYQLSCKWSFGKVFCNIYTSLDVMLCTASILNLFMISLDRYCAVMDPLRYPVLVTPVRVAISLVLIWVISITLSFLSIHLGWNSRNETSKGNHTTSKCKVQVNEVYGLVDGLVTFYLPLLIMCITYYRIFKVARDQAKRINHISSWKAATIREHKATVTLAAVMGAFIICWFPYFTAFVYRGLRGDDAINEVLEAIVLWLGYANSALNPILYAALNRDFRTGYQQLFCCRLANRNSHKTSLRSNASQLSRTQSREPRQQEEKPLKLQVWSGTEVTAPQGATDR
168 GPCRs (Homo sapiens, UniProt P25025), sequence (P25025 whole entry): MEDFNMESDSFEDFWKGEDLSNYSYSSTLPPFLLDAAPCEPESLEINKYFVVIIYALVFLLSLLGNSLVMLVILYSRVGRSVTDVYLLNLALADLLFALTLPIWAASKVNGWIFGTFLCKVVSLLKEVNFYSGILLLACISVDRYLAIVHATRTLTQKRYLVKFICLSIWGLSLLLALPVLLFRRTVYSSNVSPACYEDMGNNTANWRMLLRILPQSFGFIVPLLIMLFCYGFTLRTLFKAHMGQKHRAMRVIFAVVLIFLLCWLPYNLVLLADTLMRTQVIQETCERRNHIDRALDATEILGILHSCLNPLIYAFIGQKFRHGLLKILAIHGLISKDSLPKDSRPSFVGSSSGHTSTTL
168 GPCRs (Homo sapiens, UniProt Q9Y5N1), sequence (Q9Y5N1 whole entry): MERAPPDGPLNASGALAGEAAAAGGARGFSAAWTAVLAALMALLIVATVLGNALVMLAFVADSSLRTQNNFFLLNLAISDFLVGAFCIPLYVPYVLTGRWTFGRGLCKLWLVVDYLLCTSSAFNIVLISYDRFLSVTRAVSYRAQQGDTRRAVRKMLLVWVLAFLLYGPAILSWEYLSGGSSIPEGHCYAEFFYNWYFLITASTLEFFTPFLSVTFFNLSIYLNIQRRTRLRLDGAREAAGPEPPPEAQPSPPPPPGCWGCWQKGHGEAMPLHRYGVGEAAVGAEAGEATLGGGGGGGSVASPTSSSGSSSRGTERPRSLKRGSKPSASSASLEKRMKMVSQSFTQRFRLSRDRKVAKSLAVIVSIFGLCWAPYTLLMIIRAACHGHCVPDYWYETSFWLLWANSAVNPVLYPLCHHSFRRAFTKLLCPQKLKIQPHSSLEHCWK
168 GPCRs (Homo sapiens, UniProt Q9H3N8), sequence (Q9H3N8 whole entry): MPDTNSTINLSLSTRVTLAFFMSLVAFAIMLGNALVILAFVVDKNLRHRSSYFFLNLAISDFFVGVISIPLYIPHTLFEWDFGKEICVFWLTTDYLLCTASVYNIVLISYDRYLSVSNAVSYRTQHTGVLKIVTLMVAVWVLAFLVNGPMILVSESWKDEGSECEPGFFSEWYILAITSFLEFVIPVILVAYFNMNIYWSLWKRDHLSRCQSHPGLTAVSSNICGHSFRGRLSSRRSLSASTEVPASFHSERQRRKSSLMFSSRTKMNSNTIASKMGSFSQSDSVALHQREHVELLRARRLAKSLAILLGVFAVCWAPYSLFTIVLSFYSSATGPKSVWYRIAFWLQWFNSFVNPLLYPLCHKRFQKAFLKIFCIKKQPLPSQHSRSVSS
168 GPCRs (Homo sapiens, UniProt P20309), sequence (P20309 whole entry): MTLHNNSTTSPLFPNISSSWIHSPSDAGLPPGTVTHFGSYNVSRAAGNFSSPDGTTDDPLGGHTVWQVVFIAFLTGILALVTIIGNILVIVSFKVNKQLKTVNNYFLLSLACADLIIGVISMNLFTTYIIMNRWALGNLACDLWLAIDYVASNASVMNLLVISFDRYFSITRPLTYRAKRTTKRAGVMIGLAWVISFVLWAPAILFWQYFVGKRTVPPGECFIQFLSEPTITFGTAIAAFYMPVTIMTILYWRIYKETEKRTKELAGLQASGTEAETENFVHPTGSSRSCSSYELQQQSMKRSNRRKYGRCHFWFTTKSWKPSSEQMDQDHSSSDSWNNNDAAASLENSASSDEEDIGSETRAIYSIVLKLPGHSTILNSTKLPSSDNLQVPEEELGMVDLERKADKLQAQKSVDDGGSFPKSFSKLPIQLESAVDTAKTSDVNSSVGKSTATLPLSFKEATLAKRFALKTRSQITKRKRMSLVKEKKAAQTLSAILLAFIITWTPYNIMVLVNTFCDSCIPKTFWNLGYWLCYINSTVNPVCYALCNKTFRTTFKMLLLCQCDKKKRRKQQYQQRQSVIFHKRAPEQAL
168 GPCRs (Homo sapiens, UniProt Q9HB89), sequence (Q9HB89 whole entry): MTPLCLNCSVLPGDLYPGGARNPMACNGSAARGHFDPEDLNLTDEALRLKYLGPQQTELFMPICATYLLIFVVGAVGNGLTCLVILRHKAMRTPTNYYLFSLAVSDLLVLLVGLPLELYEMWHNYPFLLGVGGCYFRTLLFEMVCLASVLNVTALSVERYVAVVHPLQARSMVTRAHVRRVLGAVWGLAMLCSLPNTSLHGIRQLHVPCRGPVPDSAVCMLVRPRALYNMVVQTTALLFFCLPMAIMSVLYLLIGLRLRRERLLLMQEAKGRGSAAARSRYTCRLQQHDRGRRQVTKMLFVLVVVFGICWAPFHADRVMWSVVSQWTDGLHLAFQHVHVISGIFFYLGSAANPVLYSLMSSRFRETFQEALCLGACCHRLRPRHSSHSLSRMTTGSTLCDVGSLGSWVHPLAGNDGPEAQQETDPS
168 GPCRs (Homo sapiens, UniProt P51681), sequence (P51681 whole entry): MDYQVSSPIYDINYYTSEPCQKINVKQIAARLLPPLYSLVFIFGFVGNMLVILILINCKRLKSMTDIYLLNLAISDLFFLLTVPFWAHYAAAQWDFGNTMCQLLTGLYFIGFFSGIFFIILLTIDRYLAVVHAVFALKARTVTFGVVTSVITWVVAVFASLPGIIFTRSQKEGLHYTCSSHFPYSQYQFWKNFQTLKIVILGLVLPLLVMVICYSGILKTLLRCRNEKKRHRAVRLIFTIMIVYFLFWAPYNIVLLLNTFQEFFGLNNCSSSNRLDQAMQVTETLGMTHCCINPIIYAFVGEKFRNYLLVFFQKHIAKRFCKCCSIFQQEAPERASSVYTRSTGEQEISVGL
168 GPCRs (Homo sapiens, UniProt Q8TCW9), sequence (Q8TCW9 whole entry): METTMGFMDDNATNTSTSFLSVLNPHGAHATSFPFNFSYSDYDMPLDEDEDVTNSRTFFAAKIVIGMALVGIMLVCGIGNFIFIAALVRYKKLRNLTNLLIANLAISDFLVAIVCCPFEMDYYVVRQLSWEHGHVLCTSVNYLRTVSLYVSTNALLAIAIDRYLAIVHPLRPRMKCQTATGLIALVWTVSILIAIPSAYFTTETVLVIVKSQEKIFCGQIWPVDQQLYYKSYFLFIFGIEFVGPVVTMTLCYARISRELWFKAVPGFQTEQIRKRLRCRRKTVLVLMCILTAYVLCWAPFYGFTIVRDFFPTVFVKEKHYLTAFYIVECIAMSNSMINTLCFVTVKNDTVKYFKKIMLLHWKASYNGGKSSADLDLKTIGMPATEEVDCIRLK
168 GPCRs (Homo sapiens, UniProt Q9H1C0), sequence (Q9H1C0 whole entry): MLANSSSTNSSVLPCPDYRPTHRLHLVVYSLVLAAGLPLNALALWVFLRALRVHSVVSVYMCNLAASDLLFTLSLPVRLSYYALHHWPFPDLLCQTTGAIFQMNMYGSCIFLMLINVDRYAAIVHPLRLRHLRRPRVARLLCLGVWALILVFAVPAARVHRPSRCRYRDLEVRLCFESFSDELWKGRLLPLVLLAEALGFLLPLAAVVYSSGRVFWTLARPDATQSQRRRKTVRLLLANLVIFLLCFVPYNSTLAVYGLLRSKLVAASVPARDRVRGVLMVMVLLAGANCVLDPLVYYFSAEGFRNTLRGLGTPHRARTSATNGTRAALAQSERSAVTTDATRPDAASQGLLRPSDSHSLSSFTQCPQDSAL
168 GPCRs (Homo sapiens, UniProt P18825), sequence (P18825 whole entry): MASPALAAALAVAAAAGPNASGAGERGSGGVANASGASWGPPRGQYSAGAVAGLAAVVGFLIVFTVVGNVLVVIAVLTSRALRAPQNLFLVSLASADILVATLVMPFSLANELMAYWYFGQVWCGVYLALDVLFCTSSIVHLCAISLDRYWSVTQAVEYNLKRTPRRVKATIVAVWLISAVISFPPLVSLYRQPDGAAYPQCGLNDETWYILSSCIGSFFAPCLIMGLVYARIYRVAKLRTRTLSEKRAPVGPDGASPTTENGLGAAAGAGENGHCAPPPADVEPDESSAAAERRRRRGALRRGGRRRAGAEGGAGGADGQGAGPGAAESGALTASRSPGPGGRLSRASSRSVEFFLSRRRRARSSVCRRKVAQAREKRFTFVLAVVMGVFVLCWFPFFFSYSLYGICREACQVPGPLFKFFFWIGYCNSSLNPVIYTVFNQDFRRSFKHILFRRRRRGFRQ
168 GPCRs (Homo sapiens, UniProt Q8TDS4), sequence (Q8TDS4 whole entry): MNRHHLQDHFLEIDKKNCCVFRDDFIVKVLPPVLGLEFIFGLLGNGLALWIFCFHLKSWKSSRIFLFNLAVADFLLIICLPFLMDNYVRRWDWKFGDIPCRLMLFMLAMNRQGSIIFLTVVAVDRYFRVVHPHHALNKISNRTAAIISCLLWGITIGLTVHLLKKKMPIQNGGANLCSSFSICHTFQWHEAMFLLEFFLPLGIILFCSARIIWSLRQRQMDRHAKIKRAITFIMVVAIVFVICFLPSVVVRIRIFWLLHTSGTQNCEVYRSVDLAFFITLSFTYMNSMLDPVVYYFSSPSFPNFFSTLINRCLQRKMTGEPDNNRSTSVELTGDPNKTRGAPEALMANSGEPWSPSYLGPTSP

CNC(C)C(=O)c1ccc2c(c1)OCO2 (stereo not drawn) [methylone, 3,4-methylenedioxy-N-methylcathinone]
activity at 10 µM ([1]; EDG6, Agonist mode, 10 uM): 0.3% | activity at 1 µM ([1]; EDG6, Agonist, 1 uM): -1.7% | activity at 1 µM ([2]; 1 uM): -2.5% | activity at 10 µM ([2]; 10 uM): 0.1% | activity at 1 µM ([3]; 1 uM): 6% | activity at 10 µM ([3]; 10 uM): 6% | activity at 10 µM ([4]; HRH2, Agonist mode, 10 uM): 2.8% | activity at 1 µM ([4]; HRH2, Agonist, 1 uM): -2.5% | activity at 10 µM ([5]; CXCR2, Agonist mode, 10 uM): 2.6% | activity at 1 µM ([5]; CXCR2, Agonist, 1 uM): -0.2% | activity at 10 µM ([6]; Agonist mode, 10 uM): -2.6% | activity at 1 µM ([6]; Agonist, 1 uM): -1.3% | activity at 10 µM ([7]; Agonist mode, 10 uM): 6.7% | activity at 1 µM ([7]; Agonist, 1 uM): 3.3% | activity at 1 µM ([8]; 1 uM): -0.9% | activity at 10 µM ([8]; 10 uM): 1% | activity at 1 µM ([9]; 1 uM): -0.1% | activity at 10 µM ([9]; 10 uM): 0.3% | activity at 10 µM ([10]; GPR120, Agonist mode, 10 uM): -5.8% | activity at 1 µM ([10]; GPR120, Agonist, 1 uM): -5.1% | activity at 10 µM ([11]; PROKR1, Agonist mode, 10 uM): -2.8% | activity at 1 µM ([11]; PROKR1, Agonist, 1 uM): -1.3% | activity at 10 µM ([12]; Agonist mode, 10 uM): -4.3% | activity at 1 µM ([12]; Agonist, 1 uM): -8.7% | activity at 10 µM ([13]; GPR92, Agonist mode, 10 uM): -3.5% | activity at 1 µM ([13]; GPR92, Agonist, 1 uM): -1.6% | activity at 1 µM ([14]; HRH4, Agonist, 1 uM): 8.6% | activity at 10 µM ([14]; IHRH4, Agonist mode, 10 uM): 9% | activity at 10 µM ([15]; Agonist mode, 10 uM): 2% | activity at 1 µM ([15]; Agonist, 1 uM): 1.3% | activity at 10 µM ([16]; UTR2, Agonist mode, 10 uM): 0% | activity at 1 µM ([16]; UTR2, Agonist, 1 uM): 0.6% | activity at 10 µM ([17]; HRH3, Agonist mode, 10 uM): -3.7% | activity at 1 µM ([17]; HRH3, Agonist, 1 uM): -3.4% | activity at 10 µM ([18]; CRTH2, Agonist mode, 10 uM): -5% | activity at 1 µM ([18]; CRTH2, Agonist, 1 uM): -5.7%
